Laboratory results published in PubChem BioAssay (NCI).
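A five-concentration, 48-hour dose response in 96-well plates underlies each endpoint, interpolated linearly between surrounding concentrations. At the GI50, growth is halved. At the TGI there is no net growth.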

How the values were obtained:
Experiment in all cases: NCI anticancer screen, dose series, 48 h
OVCAR-5 ovarian = system: OVCAR-5 ovarian
A549 NSCLC = system: A549 NSCLC
OVCAR-8 ovarian = system: OVCAR-8 ovarian
TK-10 renal = system: TK-10 renal
HS 578T breast = system: HS 578T breast
BT-549 breast = system: BT-549 breast
HCC-2998 colon = system: HCC-2998 colon
UO-31 renal = system: UO-31 renal
NCI-H522 lung = system: NCI-H522 lung
HCT-15 colon = system: HCT-15 colon
SK-MEL-28 melanoma = system: SK-MEL-28 melanoma
COLO 205 colon = system: COLO 205 colon
OVCAR-4 ovarian = system: OVCAR-4 ovarian
SW-620 colon = system: SW-620 colon
NCI/ADR-RES ovarian = system: NCI/ADR-RES ovarian
MALME-3M melanoma = system: MALME-3M melanoma
K-562 leukemia = system: K-562 leukemia
ACHN renal = system: ACHN renal
A498 renal = system: A498 renal
IGROV1 ovarian = system: IGROV1 ovarian
NCI-H23 lung = system: NCI-H23 lung
SK-MEL-2 melanoma = system: SK-MEL-2 melanoma
T-47D breast = system: T-47D breast
UACC-257 melanoma = system: UACC-257 melanoma
SF-295 CNS = system: SF-295 CNS
RPMI-8226 leukemia = system: RPMI-8226 leukemia
HL-60(TB) leukemia = system: HL-60(TB) leukemia
SK-OV-3 ovarian = system: SK-OV-3 ovarian
786-0 renal = system: 786-0 renal

SMILES: O=S(=O)(NC1=NCCN1C(=S)SN1CCn2c1nsc2=S)c1cccc(OC(F)(F)F)c1
- GI50 (OVCAR-5 ovarian): 16.4 µM
- TGI (OVCAR-5 ovarian): 30 µM
- GI50 (A549 NSCLC): 17.4 µM
- TGI (A549 NSCLC): 44.8 µM
- GI50 (OVCAR-8 ovarian): 11 µM
- TGI (OVCAR-8 ovarian): 65.1 µM
- GI50 (TK-10 renal): 13.8 µM
- TGI (TK-10 renal): 29.7 µM
- GI50 (HS 578T breast): 35.9 µM
- TGI (HS 578T breast): > 100 µM
- GI50 (BT-549 breast): 25.7 µM
- TGI (BT-549 breast): > 100 µM
- GI50 (HCC-2998 colon): 5.16 µM
- TGI (HCC-2998 colon): 16.1 µM
- GI50 (UO-31 renal): 14.1 µM
- TGI (UO-31 renal): 28.1 µM
- GI50 (NCI-H522 lung): 6.85 µM
- TGI (NCI-H522 lung): 28.3 µM
- GI50 (HCT-15 colon): 10.5 µM
- TGI (HCT-15 colon): 22.4 µM
- GI50 (SK-MEL-28 melanoma): 15.9 µM
- TGI (SK-MEL-28 melanoma): 32.6 µM
- GI50 (COLO 205 colon): 13.3 µM
- TGI (COLO 205 colon): > 100 µM
- GI50 (OVCAR-4 ovarian): 12.5 µM
- TGI (OVCAR-4 ovarian): 27.9 µM
- GI50 (SW-620 colon): 6.7 µM
- TGI (SW-620 colon): > 100 µM
- GI50 (NCI/ADR-RES ovarian): 12 µM
- TGI (NCI/ADR-RES ovarian): 44.8 µM
- GI50 (MALME-3M melanoma): 6.75 µM
- TGI (MALME-3M melanoma): 23.3 µM
- GI50 (K-562 leukemia): 4.47 µM
- TGI (K-562 leukemia): > 100 µM
- GI50 (ACHN renal): 13.5 µM
- TGI (ACHN renal): 26.3 µM
- GI50 (A498 renal): 22.6 µM
- TGI (A498 renal): 42 µM
- GI50 (IGROV1 ovarian): 9.86 µM
- TGI (IGROV1 ovarian): 46.6 µM
- GI50 (NCI-H23 lung): 12.8 µM
- TGI (NCI-H23 lung): 32.1 µM
- GI50 (SK-MEL-2 melanoma): 16 µM
- TGI (SK-MEL-2 melanoma): 41.5 µM
- GI50 (T-47D breast): 12.3 µM
- TGI (T-47D breast): 39.4 µM
- GI50 (UACC-257 melanoma): 17.3 µM
- TGI (UACC-257 melanoma): 38.1 µM
- GI50 (SF-295 CNS): 23.6 µM
- TGI (SF-295 CNS): 63.3 µM
- GI50 (RPMI-8226 leukemia): 2.06 µM
- TGI (RPMI-8226 leukemia): 4.44 µM
- GI50 (HL-60(TB) leukemia): > 100 µM
- TGI (HL-60(TB) leukemia): > 100 µM
- GI50 (SK-OV-3 ovarian): 23.5 µM
- TGI (SK-OV-3 ovarian): 46.5 µM
- GI50 (786-0 renal): 12 µM
- TGI (786-0 renal): 27.1 µM
